The text below walks through data of ChEMBL document CHEMBL1141154, “Indolin-2-ones with high in vivo efficacy in a model for multiple sclerosis” (J Med Chem, 2005).

For test [1], the system named is PBMC. The experiment in a line: In vitro inhibitory concentration on the production of pro-inflammatory cytokine IL-2 in PBMC (Peripheral blood mononuclear cells) determined by IL-2 PBMC assay. In kind it is functional, cell-based. The following applies: Homo sapiens.
The target in test [2] is Vascular endothelial growth factor receptor 2 (Homo sapiens, UniProt P35968). The test can be described thus: In vitro inhibition of KDR.
Test [3] deals with Mus musculus. The experiment in a line: In vivo percent inhibition of multiple sclerosis (MS) by the compound upon intraperitoneal administration at a dose of 50 mg/kg on EAE model (mice immunized for EAE induction and assessed clinically for 21 days). In kind it is functional. As to conditions: ip, 504 h.
Test [4] has as its system Mus musculus. The experiment in a line: In vivo percent inhibition of multiple sclerosis (MS) by the compound upon oral administration at a dose of 50 mg/kg on EAE model (mice immunized for EAE induction and assessed clinically for 21 days). In kind it is functional. As to conditions: 504 h.
Test [5] deals with Mus musculus. The experiment in a line: In vivo percent inhibition of multiple sclerosis (MS) by the compound upon intraperitoneal administration at a dose of 50 mg/kg on EAE model (mice immunized for EAE induction and assessed clinically for 21 days); non significant effect. In kind it is functional. The following applies: ip, 504 h.

pIC50: −log10 of the molar value. Where only a bound is given, the exact number is not on record here.

Chain of Vascular endothelial growth factor receptor 2 (P35968 whole entry): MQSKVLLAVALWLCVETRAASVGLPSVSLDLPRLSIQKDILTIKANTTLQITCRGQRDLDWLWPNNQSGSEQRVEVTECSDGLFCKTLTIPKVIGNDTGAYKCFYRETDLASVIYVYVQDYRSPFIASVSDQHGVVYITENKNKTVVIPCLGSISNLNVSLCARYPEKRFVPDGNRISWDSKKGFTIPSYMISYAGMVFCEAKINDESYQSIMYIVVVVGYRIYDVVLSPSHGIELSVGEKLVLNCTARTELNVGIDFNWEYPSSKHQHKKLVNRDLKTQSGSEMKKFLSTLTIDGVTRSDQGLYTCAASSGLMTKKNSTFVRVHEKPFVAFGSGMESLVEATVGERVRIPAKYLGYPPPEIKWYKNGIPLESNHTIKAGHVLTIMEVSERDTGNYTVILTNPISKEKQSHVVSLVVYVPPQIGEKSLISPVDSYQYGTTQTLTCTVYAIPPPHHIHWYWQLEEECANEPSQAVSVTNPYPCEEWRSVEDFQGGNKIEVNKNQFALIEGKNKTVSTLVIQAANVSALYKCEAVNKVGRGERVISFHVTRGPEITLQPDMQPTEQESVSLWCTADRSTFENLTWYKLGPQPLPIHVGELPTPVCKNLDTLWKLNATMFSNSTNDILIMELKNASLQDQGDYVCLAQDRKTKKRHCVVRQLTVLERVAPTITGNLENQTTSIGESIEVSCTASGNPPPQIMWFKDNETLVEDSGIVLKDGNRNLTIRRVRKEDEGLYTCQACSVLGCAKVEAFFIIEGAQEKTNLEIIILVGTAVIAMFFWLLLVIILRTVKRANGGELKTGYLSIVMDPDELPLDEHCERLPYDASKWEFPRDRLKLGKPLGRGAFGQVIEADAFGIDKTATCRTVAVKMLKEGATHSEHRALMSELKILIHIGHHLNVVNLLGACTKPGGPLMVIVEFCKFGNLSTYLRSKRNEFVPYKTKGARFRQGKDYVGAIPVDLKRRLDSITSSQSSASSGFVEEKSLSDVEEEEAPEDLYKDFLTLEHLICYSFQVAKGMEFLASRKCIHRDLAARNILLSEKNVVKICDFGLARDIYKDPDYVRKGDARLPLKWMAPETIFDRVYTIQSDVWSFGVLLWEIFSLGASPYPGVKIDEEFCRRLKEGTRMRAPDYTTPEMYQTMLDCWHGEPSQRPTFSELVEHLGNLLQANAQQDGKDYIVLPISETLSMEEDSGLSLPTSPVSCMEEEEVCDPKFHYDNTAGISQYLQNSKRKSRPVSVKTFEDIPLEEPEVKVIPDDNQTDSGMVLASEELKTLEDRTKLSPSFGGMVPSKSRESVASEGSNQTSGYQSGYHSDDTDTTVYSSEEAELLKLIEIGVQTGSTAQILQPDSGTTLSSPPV

On to `CCOC(=O)c1cc(C)c(/C=C2\C(=O)Nc3ccccc32)[nH]1`, for which the pIC50 in test [1] was 7.85; in test [2], 5.10. In test [3], the inhibition in vivo at 50 mg/kg is -44%.

As to `O=C1Nc2ccccc2/C1=C/c1c[nH]c2ccccc12`, the pIC50 in test [1] was 8.10. Also, the inhibition in vivo at 50 mg/kg in test [4] is 32%; in test [3] it was 84%.

Consider `Cc1[nH]c(/C=C2\C(=O)Nc3ccccc32)c(C)c1Br`, for which the pIC50 is 8.52 in test [1] and 6.49 in test [2]. Besides, the inhibition in vivo at 50 mg/kg in test [3] was -78%.

For the molecule `Cc1cc(C)c(/C=C2\C(=O)N(O)c3ccccc32)[nH]1`, the pIC50 in test [1] is 7.74; in test [2], 6.30. For the same molecule, in test [3], the inhibition in vivo at 50 mg/kg is -67%.

For the molecule `CC(=O)ON1C(=O)/C(=C\c2[nH]c(C)cc2C)c2ccccc21`, the pIC50 in test [1] was 7.96; in test [2] it was 6.40. For the same molecule, the inhibition in vivo at 50 mg/kg in test [3] was -48%.

`COc1ccc(OC)c(/C=C2/C(=O)Nc3ccccc32)c1`: the pIC50 in test [1] is 7.68. In addition, the inhibition in vivo at 50 mg/kg in test [4] is -49%; in test [3], -90%.

As to `Cc1cc(CO)[nH]c1/C=C1\C(=O)Nc2ccccc21`, the values for the negative-log IC50 (pIC50) in test [1] and in test [2] were 7.30 and 6.49, respectively. Also, in test [3], the inhibition in vivo at 50 mg/kg is -57%.

Turning to `Cc1cc(C(=O)NCCO)[nH]c1/C=C1\C(=O)Nc2ccccc21`, the pIC50 in test [1] was 7.52; in test [2], under 5.00. In test [3], the inhibition in vivo at 50 mg/kg is -41%.

On to `Cc1cc(C)c(/C=C2\C(=O)N(CN3CCN(C)CC3)c3ccccc32)[nH]1`, for which the inhibition in vivo at 50 mg/kg in test [4] was -56%.

As for `Cc1[nH]c(/C=C2\C(=O)Nc3ccccc32)c(C)c1Cl`, the figures for the pIC50 in test [1] and in test [2] were 8.40 and 6.00, respectively. Further, in test [3], the inhibition in vivo at 50 mg/kg was -96%.

Turning to `Cc1cc(C(=O)O)[nH]c1/C=C1\C(=O)Nc2ccccc21`, the inhibition in vivo at 50 mg/kg in test [5] was -23%. The pIC50 in test [1] was under 6.00; in test [2] it was under 5.00.

Take `Cc1cc(C)c(/C=C2\C(=O)Nc3ccc(O)cc32)[nH]1`: the inhibition in vivo at 50 mg/kg in test [5] is -12%. For the same molecule, the pIC50 in test [1] is 6.00; in test [2], 7.00.

`O=C1Nc2ccccc2/C1=C/c1ccc[nH]1`: the inhibition in vivo at 50 mg/kg in test [5] is -9%.

For the molecule `Cc1cc(C)c(/C=C2\C(=O)Nc3ccccc32)[nH]1` [SEMAXANIB], the inhibition in vivo at 50 mg/kg in test [3] was -98%.

In turn, `Clc1ccc(Nc2nnc(Cc3ccncc3)c3ccccc23)cc1` [VATALANIB] showed a pIC50 in test [1] of under 6.00.

Broadly, the pIC50 is the IC50 on a negative log10 scale, so that one unit is a factor of ten. The term inhibition in vivo denotes the change of the read-out against control, counted positive when it falls.
